# Columns and labels:
# [1] = system: Liver microsomes; test: Intrinsic clearance in rat liver microsomes; assay type: ADME, Microsome
# [2] = system: Liver microsomes; test: Intrinsic clearance in human liver microsomes; assay type: ADME, Microsome
# [3] = Absolute oral bioavailability in Sprague-Dawley rat at 2 mg/kg by HPLC method; assay type: ADME, organism-based; details: in vivo
# [4] = Volume of distribution at steady state in Sprague-Dawley rat at 2 mg/kg, po and 1 mg/kg, iv by HPLC method; assay type: ADME, organism-based; details: in vivo, read-out: Vdss
# [5] = Plasma clearance in Sprague-Dawley rat at 2 mg/kg, po and 1 mg/kg, iv by HPLC method; assay type: ADME, organism-based
# [6] = Plasma concentration in Sprague-Dawley rat at 3 mg/kg, po after 1 hr; assay type: ADME, organism-based; design: dose 3 mg/kg, route oral
# [7] = Plasma concentration in Sprague-Dawley rat at 10 mg/kg, po after 4 hrs; assay type: ADME, organism-based; design: dose 10 mg/kg, route oral
# [8] = Drug uptake in Sprague-Dawley rat brain at 3 mg/kg, po after 1 hr; assay type: ADME, organism-based; design: dose 3 mg/kg, route oral; details: read-out: Drug uptake
# [9] = Drug uptake in Sprague-Dawley rat brain at 10 mg/kg, po after 4 hrs; assay type: ADME, organism-based; design: dose 10 mg/kg, route oral; details: read-out: Drug uptake
Structure (SMILES),CL [1] [mL/min],CL [2] [L/min],further results
CN1CCN(S(=O)(=O)NCCCCCNc2nc(-c3ccccn3)cs2)CC1,120,2.5,
CC1CN(S(=O)(=O)NCCCCCNc2nc(-c3ccccn3)cs2)CC(C)O1 (stereo not given),74,11,
O=S(=O)(NCCCCCNc1nc(-c2ccccn2)cs1)N1CCOCC1,44,2.9,
CC(C)S(=O)(=O)NCCCCCNc1nc(-c2ccsc2)cs1,87,5.4,
CS(=O)(=O)NC[C@H]1CC[C@H](Nc2nc3c(s2)CCSc2ccccc2-3)CC1,40,2.5,

# The next lines start with results.
CL [1] [mL/min],CL [2] [L/min],Structure (SMILES),further results
72,2.2,CC(C)S(=O)(=O)NCCCCCNc1nc(-c2ccccn2)cs1,bioavailability [3]: 49%; Vd [4]: 22 L/kg; clearance [5]: 383 mL/min/kg
,27,Cc1nc(C)c(S(=O)(=O)NCCCCCNc2nc(-c3ccccn3)cs2)s1,
,1.1,CC(C)S(=O)(=O)NCCOCCNc1nc(-c2ccccn2)cs1,
150,16,COCCN(CCOC)S(=O)(=O)NCCCCCNc1nc(-c2ccccn2)cs1,
290,27,CCN(CC)S(=O)(=O)NCCCCCNc1nc(-c2ccccn2)cs1,
110,1.8,CN(C)S(=O)(=O)NCCCCCNc1nc(-c2ccccn2)cs1,bioavailability [3]: 26%; concentration at 1 h [6]: 12 ng/mL; Vd [4]: 47 L/kg; concentration at 4 h [7]: 24 ng/mL; concentration at 1 h [8]: 4 ng/g; clearance [5]: 140 mL/min/kg; concentration at 4 h [9]: 12 ng/g

# Reference: ChEMBL document CHEMBL1909589, “5-(2'-Pyridyl)-2-aminothiazoles: alkyl amino sulfonamides and sulfamides as potent NPY(5) antagonists” (Bioorg Med Chem Lett, 2011)
